Source: patent US8927563B2, “Kinase inhibitor” (Respivert Limited, priority 2013, dated 2015)

Experiments:
d-U937 cells = assay: Accumulation of β catenin in d-U937 cells; format: cell-based, human; conditions: normalised to Reference compound at 1 μg/mL
Description: U937 cells, a human monocytic cell line, are differentiated into macrophage-type cells by incubation with PMA (100 ng/mL) for between 48 to 72 hr. The cells are then incubated with either final concentrations of test compound or vehicle for 18 hr. The induction of β-catenin by the test compound is stopped by replacing the media with 4% formaldehyde solution. Endogenous […] is neutralised by incubating with quenching buffer (100 μL, 0.1% sodium azide, 1% H2O2 in PBS with 0.05% Tween-20) for 20 min. The cells are washed with washing buffer (200 μL; PBS containing 0.05% Tween-20) and incubated with blocking solution (200 μL; 5% milk in PBS) for 1 hr, re-washed with washing buffer (200 μL) and then incubated overnight with anti-β-catenin antibody solution (50 μL) in 1% BSA/PBS (BD, Oxford, UK).
After washing with washing buffer (3×200 μL; PBS containing 0.05% Tween-20), cells are incubated with a HRP-conjugated secondary antibody solution (100 μL) in 1% BSA/PBS (Dako, Cambridge, UK) and the resultant signal is determined colourimetrically (OD: 450 nm with a reference wavelength of 655 nm) using TMB substrate (50 μL; R&D Systems, Abingdon, UK). This reaction is stopped by addition of 1N H2SO4 solution (50 μL). Cells are then washed with washing buffer and 2% crystal violet solution (50 μL) is applied for 30 min. After washing with washing buffer (3×200 μL), 1% SDS (100 μL) is added to each well and the plates are shaken lightly for 1 hr prior to measuring the absorbance at 595 nm (Varioskan® Flash, Thermo-Fisher Scientific).
The measured OD450-655 readings are corrected for cell number by dividing the OD450-655 by the OD595 readings.

[1] = system: rat, Cynomolgus macaque or human hepatocytes; assay: Analysis of metabolites in hepatocyte incubations; format: in vitro ADME; conditions: 10 μM, 0, 60 and 90 minutes
Description: Studies were conducted by BioFocus (Saffron Walden, UK) to determine the metabolic fate of Compound I following incubation with rat, Cynomolgus macaque or human hepatocytes.
Separate incubations (n=3) of Compound I (10 μM initial concentration) or DMSO control, were performed with cryopreserved hepatocytes from each species (0.5 million cell/mL) at 37° C. for 0, 60 and 90 minutes before termination of reactions and compound extraction with acetonitrile. Sample replicates were pooled prior to analysis.
Potential metabolites were identified using time-of-flight (TOF) and triple quadruple (TQ) mass spectrometers.

[2] = Plasma pharmacokinetics and total colon distribution after oral administration to mice; format: in vivo; conditions: male, C57BL/6, mouse, total colon, oral 5 mg/kg, vehicle B, read-out: Median total colon concentration
Description: Studies were conducted by Sai Life Sciences (Hinjewadi, Pune, India) to investigate the plasma pharmacokinetics and total colon tissue distribution of Compound I. In particular, pharmacokinetic studies were carried out in: • male C57BL/6 mice, following a single oral administration; and • male Wistar rats following a single intravenous or oral administration.

Syk = Syk (Homo sapiens (Human), UniProt P43405); assay: Syk enzyme inhibition, Z-LYTE FRET; format: biochemical
Description: (§1) The enzyme inhibitory activities of compounds disclosed herein are determined by FRET using synthetic peptides labelled with both donor and acceptor fluorophores (Z-LYTE, Invitrogen Ltd., Paisley, UK).
The inhibitory activities of the compound of the invention against c-Src and Syk enzymes (Invitrogen) are evaluated in a similar fashion to that described hereinabove. The relevant enzyme (3000 ng/mL or 2000 ng/mL respectively, 2.5 μL) is incubated with the test compound (either 1 μg/mL, 0.1 μg/mL, 0.01 μg/mL, or 0.001 μg/mL, 2.5 μL each) for 2 hr at RT. The FRET peptides (8 μM, 2.5 μL) and appropriate ATP solutions (2.5 μL, 800 μM for c-Src, and 60 μM ATP for Syk) are then added to the enzymes/compound mixtures and the mixture incubated for 1 hr. Development reagent (protease, 5 μL) is added for 1 hr prior to detection in a fluorescence microplate reader (Varioskan® Flash, ThermoFisher Scientific).
(§2) In all cases, the site-specific protease cleaves non-phosphorylated peptide only and eliminates the FRET signal. Phosphorylation levels of each reaction are calculated using the ratio of coumarin emission (donor) over fluorescein emission (acceptor), for which high ratios indicate high phosphorylation and low ratios indicate low phosphorylation levels.

GSK3α = GSK3α (Homo sapiens (Human), UniProt P49840); assay: GSK3α enzyme inhibition (Method 2), Z-LYTE FRET; format: biochemical
Description: as §1
The inhibitory activities of the compound of the invention against the GSK 3α enzyme isoform (Invitrogen), are evaluated by determining the level of activation/phosphorylation of the target peptide. The GSK3-α protein (500 ng/mL, 2.5 μL) is mixed with the test compound (2.5 μL at either 4 μg/mL, 0.4 μg/mL, 0.04 μg/mL, or 0.004 μg/mL) for 2 hr at RT. The FRET peptide (8 μM, 2.5 μL), which is a phosphorylation target for GSK3α, and ATP (40 μM, 2.5 μL) are then added to the enzyme/compound mixture and the resulting mixture incubated for 1 hr. Development reagent (protease, 5 μL) is added for 1 hr prior to detection in a fluorescence microplate reader (Varioskan® Flash, ThermoFisher Scientific).
as §2, with “levels. […]” for “levels.”

[3] = system: intestinal mucosa biopsies from ulcerative colitis patients; assay: Human biopsy assay, cytokine release from biopsies of UC patients; format: cell-based; conditions: 1 μg/mL, 24 hours; relative to DMSO control 100%
Description: Intestinal mucosa biopsies are obtained from the inflamed regions of the colons of IBD patients. The biopsy material is cut into small pieces (2-3 mm) and placed on steel grids in an organ culture chamber at 37° C. in a 5% CO2/95% O2 atmosphere in serum-free media. DMSO control or test compound at the desired concentration are added to the tissue and incubated for 24 hr in the organ culture chamber. The supernatant is harvested for determination of IL-6, IL-8, IL-1β and TNFα levels by R&D ELISA.

Sequence of GSK3α (P49840 whole entry): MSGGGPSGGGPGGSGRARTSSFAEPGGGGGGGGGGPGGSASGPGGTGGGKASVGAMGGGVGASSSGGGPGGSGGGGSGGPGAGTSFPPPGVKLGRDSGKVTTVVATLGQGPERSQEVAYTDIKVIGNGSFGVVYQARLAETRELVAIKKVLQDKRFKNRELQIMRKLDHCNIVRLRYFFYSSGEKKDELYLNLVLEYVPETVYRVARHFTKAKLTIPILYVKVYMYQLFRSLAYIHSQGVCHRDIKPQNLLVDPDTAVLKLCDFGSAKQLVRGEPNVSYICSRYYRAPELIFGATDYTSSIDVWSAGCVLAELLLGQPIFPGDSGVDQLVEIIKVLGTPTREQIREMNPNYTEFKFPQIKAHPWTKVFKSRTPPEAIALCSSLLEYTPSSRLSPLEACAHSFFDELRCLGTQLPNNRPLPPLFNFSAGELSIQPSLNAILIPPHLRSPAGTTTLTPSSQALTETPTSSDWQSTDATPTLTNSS

In the case of C#Cc1cc(Nc2nccc(Oc3ccc(NC(=O)Nc4cc(C(C)(C)C)cc(NS(C)(=O)=O)c4OC)c4ccccc34)n2)cc(C(=O)NCCOCCOCCOC)c1 [Compound I, 3-((4-((4-(3-(5-(tert-Butyl)-2-methoxy-3-(methylsulfonamido)phenyl)ureido)naphthalen-1-yl)oxy)pyrimidin-2-yl)amino)-5-ethynyl-N-(2-(2-(2-methoxyethoxy)ethoxy)ethyl)benzamide], the “% β-catenin induction” value (d-U937 cells; 1 μg/mL) is reported as 21%, the “% β-catenin induction” value (d-U937 cells; 5 μg/mL) is reported as 14% and the “% β-catenin induction” value (d-U937 cells; 10 μg/mL) is reported as 26%. The “number of metabolites formed in hepatocytes” value [1] was 9, the “products connected to metabolism at the naphthalene moiety” value [1] was “no products were noted” and the concentration at 1 h ([2]; 1 h) was 0 ng/g. The concentration at 2 h ([2]; 2 h) was 10.4 ng/g, the concentration at 4 h ([2]; 4 h) was 420 ng/g and the concentration at 6 h ([2]; 6 h) was 3080 ng/g. It also gave a concentration at 8 h ([2]; 8 h) of 1950 ng/g, a concentration at 12 h ([2]; 12 h) of 126 ng/g and a concentration at 24 h ([2]; 24 h) of 23 ng/g. For the same compound, the IC50 (Syk) was 0.591 µM, the IC50 (GSK3α) was 0.411 µM and the “IL-1β release from biopsies of UC patients” value [3] was 5 ± 8%. The “IL-6 release from biopsies of UC patients” value [3] was 17 ± 23% and the “IL-8 release from biopsies of UC patients” value [3] was 9 ± 15%.
